The experiment has as its system B6C3F1 mice, B16 melanoma ip, median survival T/C. Put plainly: NCI In Vivo Anticancer Drug Screen. Data for tumor model B16 Melanoma (intraperitoneal) in B6C3F1 mice. As to conditions: endpoint: median survival time, higher = longer survival. The gist of the method: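 Readout: survival or tumor size in treated mice relative to vehicle controls (T/C). Model uses transplantable tumors grown in mice.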

Setting [1] is: dose: 12.5 mg/kg/injection, schedule: Q01DX009 (ip), vehicle: saline with Tween-80.
The mark [2] stands for this setting: dose: 25.0 mg/kg/injection, schedule: Q01DX009 (ip), vehicle: saline with Tween-80.
[3] abbreviates: dose: 50.0 mg/kg/injection, schedule: Q01DX009 (ip), vehicle: saline with Tween-80.
The mark [4] stands for this setting: dose: 100.0 mg/kg/injection, schedule: Q01DX009 (ip), vehicle: saline with Tween-80.
[5] abbreviates: dose: 200.0 mg/kg/injection, schedule: Q01DX009 (ip), vehicle: saline with Tween-80.
Setting [6] is: dose: 100.0 mg/kg/injection, schedule: Q01DX009 (ip), vehicle: Klucel (hydroxypropylcellulose) (HPC).
[7] abbreviates: dose: 200.0 mg/kg/injection, schedule: Q01DX009 (ip), vehicle: Klucel (hydroxypropylcellulose) (HPC).
Setting [8] is: dose: 25.0 mg/kg/injection, schedule: Q01DX009 (ip), vehicle: Klucel (hydroxypropylcellulose) (HPC).

Several values for one entry are separate records, joined by “and”; a condition that tells them apart may be missing. Equal entries are not always repeated. Inconclusive results and toxic doses are left out.

Regarding `O=C(CNC(=O)OCc1ccccc1)NCC(=O)NC(Cc1c[nH]c2ccccc12)C(=O)O` (configuration not stated), the T/C (dose: 50.0 mg/kg/injection, schedule: Q01DX009 (ip), vehicle: suspension in saline) is 97 % of control; the T/C (dose: 100.0 mg/kg/injection, schedule: Q01DX009 (ip), vehicle: suspension in saline) is 109 % of control and 117 % of control and 88 % of control; the T/C (dose: 200.0 mg/kg/injection, schedule: Q01DX009 (ip), vehicle: suspension in saline) was 91 % of control and 99 % of control; the T/C (dose: 400.0 mg/kg/injection, schedule: Q01DX009 (ip), vehicle: suspension in saline) was 88 % of control and 92 % of control and 107 % of control.
As for `CN1CCCN(C(c2ccccc2)c2ccc(Br)cc2)CC1` (configuration not stated), the T/C is 98 % of control (dose: 18.0 mg/kg/injection, schedule: Q01DX009 (ip), vehicle: saline) and 92 % of control (dose: 36.0 mg/kg/injection, schedule: Q01DX009 (ip), vehicle: saline).
For `O=CN(SSN(C=O)C1CCCCC1)C1CCCCC1`, the T/C under setting [1] was 90 % of control; the T/C under setting [2] was 106 % of control; the T/C under setting [3] is 101 % of control; the T/C under setting [4] was 89 % of control; the T/C under setting [5] was 97 % of control.
For `C/C(=N\NC(=S)N1CCN(c2ccccn2)CC1)c1ccccn1`, the T/C (dose: 6.25 mg/kg/injection, schedule: Q01DX009 (ip), vehicle: water) was 99 % of control; the T/C (dose: 12.5 mg/kg/injection, schedule: Q01DX009 (ip), vehicle: water) is 99 % of control; the T/C (dose: 25.0 mg/kg/injection, schedule: Q01DX009 (ip), vehicle: water) was 111 % of control.
With `Cc1cc2nc3ccc(N)cc3oc-2cc1=[N+](C)C`, the T/C reads like this: (dose: 12.5 mg/kg/injection, schedule: Q01DX009 (ip), vehicle: saline) 106 % of control; (dose: 25.0 mg/kg/injection, schedule: Q01DX009 (ip), vehicle: saline) 112 % of control.
Turning to `CC12C(=O)C=CCC1=CCC1C2CCC2(O)C(=O)OC3(C)C4CC5(C)C(COC16OC23C5C6=O)C(=O)O4` (configuration not stated), the T/C was 93 % of control under setting [6] and 98 % of control under setting [7].
Consider `C[C@H](N)C(=O)N[C@@H]1[C@H]2C(=C(O)C[C@@H](O)[C@@H]2O)C(=O)O[C@]1(C)C(Cl)Cl`, for which the T/C was 95 % of control (dose: 0.18 mg/kg/injection, schedule: Q01DX009 (ip), vehicle: Klucel (hydroxypropylcellulose) (HPC)); 100 % of control (dose: 0.19 mg/kg/injection, schedule: Q01DX009 (ip), vehicle: Klucel (hydroxypropylcellulose) (HPC)); 101 % of control and 107 % of control (dose: 0.37 mg/kg/injection, schedule: Q01DX009 (ip), vehicle: Klucel (hydroxypropylcellulose) (HPC)); 105 % of control (dose: 0.38 mg/kg/injection, schedule: Q01DX009 (ip), vehicle: Klucel (hydroxypropylcellulose) (HPC)); 116 % of control and 104 % of control (2×) (dose: 0.75 mg/kg/injection, schedule: Q01DX009 (ip), vehicle: Klucel (hydroxypropylcellulose) (HPC)); 112 % of control and 113 % of control and 118 % of control (dose: 1.5 mg/kg/injection, schedule: Q01DX009 (ip), vehicle: Klucel (hydroxypropylcellulose) (HPC)).
For `NC(=O)NC(CC(=O)O)C(=O)O` (configuration not stated), the T/C is, setting by setting: under setting [3], 113 % of control; under setting [4], 95 % of control; under setting [5], 102 % of control.
As for `CC(C)CC(NC(=O)OCC1c2ccccc2-c2ccccc21)C(=O)O` (configuration not stated), the T/C is, setting by setting: under setting [8], 102 % of control; under setting [6], 122 % of control and 101 % of control.
As for `Cc1cc(O)c(O)c(Oc2cc(C)cc(O)c2O)c1`, the T/C was 94 % of control (dose: 75.0 micrograms/kg/injection, schedule: Q01DX009 (ip), vehicle: saline); 104 % of control (dose: 150.0 micrograms/kg/injection, schedule: Q01DX009 (ip), vehicle: saline); 105 % of control (dose: 300.0 micrograms/kg/injection, schedule: Q01DX009 (ip), vehicle: saline).
Take `COC1=CC(=O)C(OC)=C(OC)C1=O`: the T/C (dose: 3.12 mg/kg/injection, schedule: Q01DX009 (ip), vehicle: saline with Tween-80) was 97 % of control; the T/C (dose: 6.25 mg/kg/injection, schedule: Q01DX009 (ip), vehicle: saline with Tween-80) was 92 % of control; the T/C under setting [1] was 99 % of control.
With `O=c1oc2c(O)c(O)cc3c(=O)oc4c(O)c(O)cc1c4c23`, the T/C reads like this: (dose: 6.25 mg/kg/injection, schedule: Q01DX009 (ip), vehicle: Klucel (hydroxypropylcellulose) (HPC)) 116 % of control; (dose: 12.5 mg/kg/injection, schedule: Q01DX009 (ip), vehicle: Klucel (hydroxypropylcellulose) (HPC)) 117 % of control; under setting [1], 123 % of control; under setting [8], 114 % of control and 120 % of control; under setting [2], 113 % of control; (dose: 50.0 mg/kg/injection, schedule: Q01DX009 (ip), vehicle: Klucel (hydroxypropylcellulose) (HPC)) 114 % of control and 87 % of control. Besides, the T/C reads like this: under setting [3], 114 % of control; under setting [6], 108 % of control and 88 % of control; under setting [4], 105 % of control; under setting [7], 116 % of control; under setting [5], 115 % of control; (dose: 400.0 mg/kg/injection, schedule: Q01DX009 (ip), vehicle: saline with Tween-80) 119 % of control.
Turning to `O=C1c2ccccc2C(=O)c2c(NCCNCCO)ccc(NCCNCCO)c21`, the T/C is 151 % of control (dose: 1.0 mg/kg/injection, schedule: Q01DX009 (ip), vehicle: other); 180 % of control and 186 % of control (dose: 2.0 mg/kg/injection, schedule: Q01DX009 (ip), vehicle: other); 195 % of control (dose: 2.5 mg/kg/injection, schedule: Q01DX009 (ip), vehicle: water); 195 % of control and 248 % of control (dose: 4.0 mg/kg/injection, schedule: Q01DX009 (ip), vehicle: other); 179 % of control (dose: 4.0 mg/kg/injection, schedule: Q01DX009 (ip), vehicle: saline); 205 % of control (dose: 5.0 mg/kg/injection, schedule: Q01DX009 (ip), vehicle: water). The T/C (dose: 8.0 mg/kg/injection, schedule: Q01DX009 (ip), vehicle: other) was 218 % of control and 243 % of control; the T/C (dose: 8.0 mg/kg/injection, schedule: Q01DX009 (ip), vehicle: saline) was 234 % of control; the T/C (dose: 10.0 mg/kg/injection, schedule: Q01DX009 (ip), vehicle: water) was 215 % of control; the T/C (dose: 16.0 mg/kg/injection, schedule: Q01DX009 (ip), vehicle: other) is 215 % of control and 231 % of control; the T/C (dose: 16.0 mg/kg/injection, schedule: Q01DX009 (ip), vehicle: saline) is 292 % of control; the T/C (dose: 20.0 mg/kg/injection, schedule: Q01DX009 (ip), vehicle: water) is 220 % of control. In addition, the T/C by setting is: (dose: 32.0 mg/kg/injection, schedule: Q01DX009 (ip), vehicle: saline) 292 % of control; (dose: 62.5 mg/kg/injection, schedule: Q01DX001 (ip), vehicle: saline) 153 % of control.
With `C[C@H](N)C(=O)N[C@@H]1[C@H]2C(=C(O)C[C@@H](O)[C@@H]2O)C(=O)O[C@@H]1C`, the T/C runs as follows: (dose: 50.0 mg/kg/injection, schedule: Q01DX009 (ip), vehicle: saline) 101 % of control; (dose: 75.0 mg/kg/injection, schedule: Q01DX009 (ip), vehicle: saline with Tween-80) 111 % of control; (dose: 100.0 mg/kg/injection, schedule: Q01DX009 (ip), vehicle: saline) 98 % of control; (dose: 150.0 mg/kg/injection, schedule: Q01DX009 (ip), vehicle: saline with Tween-80) 120 % of control; (dose: 200.0 mg/kg/injection, schedule: Q01DX009 (ip), vehicle: saline) 111 % of control; (dose: 300.0 mg/kg/injection, schedule: Q01DX009 (ip), vehicle: saline with Tween-80) 117 % of control. The T/C runs as follows: (dose: 400.0 mg/kg/injection, schedule: Q01DX009 (ip), vehicle: saline) 103 % of control; (dose: 1200.0 mg/kg/injection, schedule: Q01DX009 (ip), vehicle: saline with Tween-80) 113 % of control.
Consider `Cc1ccc([NH-])c([NH-])c1.[Cl][Pt+2][Cl]`, for which the T/C is, setting by setting: (dose: 0.63 mg/kg/injection, schedule: Q01DX009 (ip), vehicle: saline with Tween-80) 114 % of control; (dose: 5.0 mg/kg/injection, schedule: Q01DX009 (ip), vehicle: saline with Tween-80) 157 % of control; (dose: 10.0 mg/kg/injection, schedule: Q01DX009 (ip), vehicle: saline with Tween-80) 160 % of control.

The values are drawn from PubChem BioAssay AID200 (DTP/NCI, 2004).
